# Test results published in US6265611A, “Hydroxymandelic acid amides of phenolic amines” (Haarmann & Reimer GmbH, priority 1999, dated 2001).
# Legend:
# [1] = DPPH test, activity as free-radical scavenger; format: biochemical; settings: EC = c(test compound)/c(DPPH); DPPH 100 μmol/l in methanol; absorption at 515 nm
# Procedure: The activity of the compounds according to Examples 1 to 7 as free-radical scavengers was compared with the conventional free-radical scavenger. For this purpose, the DPPH (1,1-diphenyl-2-picryl-hydrazyl) test for the removal of […] was used.
# DPPH was dissolved in methanol to a concentration of 100 μmol/l. A series of dilutions of the illustrative compound, vitamin C, α tocopherol, butylated hydroxytoluene and ferulic acid in methanol were prepared. Methanol was used as the control. 2500 μl of the DPPH solution were mixed with 500 μl of each test solution and the decrease in absorption at 515 nm was read until the decrease was less than 2% per hour. The activity of the test substances as free-radical scavengers was calculated using the following equation:
# Activity as free-radical scavenger (%)=100-(absorption of the test
# compounds)/ (absorption of the control)×100.
# [2] = Activity as antioxidants: accelerated autoxidation of lipids by air (Rancimat); settings: AOI = IP(with test solution)/IP(control sample); 0.05% test substance; soybean oil, 100° C., air 20 l/h
# Procedure: The activity of the illustrative compounds 1 to 7 as antioxidants was compared with that of traditional antioxidants. The test system used was the accelerated autoxidation of lipids by air with or without antioxidant using the Rancimat apparatus (Rancimat is a registered trade mark of Metrohm AG, Herisau, Switzerland). The illustrative compounds, vitamin C, α-tocopherol, ferulic acid and butylated hydroxytoluene were dissolved in methanol or acetone, and 100 μl of each test solution were added to a 3 g prepared oil sample (soybean oil, purified over alumina type N). In a control sample, only solvent was added. A constant, dry stream of air (20 l/h) was blown through the oil sample, which contained the test solution and was heated to 100° C., and the volatile oxidation product (predominantly short-chain fatty acids such as formic or acetic acid) were collected in a trap containing water. The conductivity of this aqueous solution was continuously measured and recorded. […] The time to the increase is referred to as the induction period (IP). The following equation was used to calculate the antioxidative index (AOI): AOI=IP(with test solution) /IP(control sample)
# [3] = Solubility in aqueous media (water/DMSO 95:5); format: physicochemical
# Procedure: The aqueous medium used by way, of example, was a mixture of 95 parts by weight of water and 5 parts by weight of DMSO. The compounds to be tested were weighed into a glass vessel, admixed with a defined amount of solvent and treated with ultrasound at room temperature for 5 min.
structure (smiles),measurement,setting,value
"Cc1cc(C(C)(C)C)c(O)c(C(C)(C)C)c1 [Butylated hydroxytoluene, reference compound]",EC50 (effective relative concentration at which 50% of the free radical DPPH had been removed),[1],0.240 mol/mol
same,antioxidative index (AOI) with 0.05% of test substance,[2],4.77
"COc1cc(C(O)C(=O)NCCc2ccc(O)c(O)c2)ccc1O (centres unmarked) [Example 1, N-(3,4-dihydroxyphenethyl)-2-hydroxy-2-(4-hydroxy-3 methoxyphenyl)acetamide]",Solubility in a mixture of water (95 parts by weight) and DMSO (5 parts by weight),[3],5-10 % by weight
same,EC50 (effective relative concentration at which 50% of the free radical DPPH had been removed),[1],0.131 mol/mol
same,antioxidative index (AOI) with 0.05% of test substance,[2],13.0
"O=C(NCCc1ccc(O)c(O)c1)C(O)c1ccc(O)c(O)c1 (centres unmarked) [Example 2, N-(3,4-dihydroxyphenethyl)-2-(3,4-dihydroxyphenyl)-2-hydroxyacetamide]",Solubility in a mixture of water (95 parts by weight) and DMSO (5 parts by weight),[3],> 10 % by weight
same,EC50 (effective relative concentration at which 50% of the free radical DPPH had been removed),[1],0.104 mol/mol
same,antioxidative index (AOI) with 0.05% of test substance,[2],16.9
"COc1cc(C(O)C(=O)NCc2ccc(O)c(O)c2)ccc1O (centres unmarked) [Example 3, N-(3,4-dihydroxybenzyl)-2-hydroxy-2-(4-hydroxy-3methoxyphenyl)acetamide]",Solubility in a mixture of water (95 parts by weight) and DMSO (5 parts by weight),[3],> 10 % by weight
same,EC50 (effective relative concentration at which 50% of the free radical DPPH had been removed),[1],0.195 mol/mol
same,antioxidative index (AOI) with 0.05% of test substance,[2],9.8
"COc1cc(C(O)C(=O)NCc2cc(O)c(O)c(O)c2)ccc1O (centres unmarked) [Example 4, 2-Hydroxy-2-(4-hydroxy-3-methoxyphenyl)-N-(3,4,5-trihydroxybenzyl)acetamide]",Solubility in a mixture of water (95 parts by weight) and DMSO (5 parts by weight),[3],0.5-1 % by weight
same,EC50 (effective relative concentration at which 50% of the free radical DPPH had been removed),[1],0.198 mol/mol
same,antioxidative index (AOI) with 0.05% of test substance,[2],11.0
"COc1cc(CNC(=O)C(O)c2ccc(O)c(O)c2)ccc1O (centres unmarked) [Example 5, 2-(3,4-Dihydroxyphenyl)-2-hydroxy-N-(4-hydroxy-3 methoxybenzyl)acetamide]",Solubility in a mixture of water (95 parts by weight) and DMSO (5 parts by weight),[3],0.05-0.1 % by weight
same,EC50 (effective relative concentration at which 50% of the free radical DPPH had been removed),[1],0.199 mol/mol
same,antioxidative index (AOI) with 0.05% of test substance,[2],12.6
"O=C(NCc1ccc(O)c(O)c1)C(O)c1ccc(O)c(O)c1 (centres unmarked) [Example 6, N-(3,4-dihydroxybenzyl)-2-(3,4-dihydroxyphenyl)-2-hydroxyacetamide]",Solubility in a mixture of water (95 parts by weight) and DMSO (5 parts by weight),[3],0.1-0.5 % by weight
same,EC50 (effective relative concentration at which 50% of the free radical DPPH had been removed),[1],0.069 mol/mol
same,antioxidative index (AOI) with 0.05% of test substance,[2],17.5
"O=C(NCc1cc(O)c(O)c(O)c1)C(O)c1ccc(O)c(O)c1 (centres unmarked) [Example 7, 2-(3,4-Dihydroxyphenyl)-2-hydroxy-N-(3,4,5-trihydroxybenzyl)acetamide]",Solubility in a mixture of water (95 parts by weight) and DMSO (5 parts by weight),[3],0.5-1 % by weight
same,EC50 (effective relative concentration at which 50% of the free radical DPPH had been removed),[1],0.085 mol/mol
same,antioxidative index (AOI) with 0.05% of test substance,[2],16.4
"COc1cc(/C=C/C(=O)O)ccc1O [Ferulic acid, reference compound]",EC50 (effective relative concentration at which 50% of the free radical DPPH had been removed),[1],0.350 mol/mol
same,antioxidative index (AOI) with 0.05% of test substance,[2],1.79
"O=C1O[C@H]([C@@H](O)CO)C(O)=C1O [Vitamin C, ascorbic acid, reference compound]",EC50 (effective relative concentration at which 50% of the free radical DPPH had been removed),[1],0.270 mol/mol
same,antioxidative index (AOI) with 0.05% of test substance,[2],1.17
"Cc1c(C)c2c(c(C)c1O)CCC(C)(CCCC(C)CCCC(C)CCCC(C)C)O2 (stereo not drawn) [α-Tocopherol, reference compound]",EC50 (effective relative concentration at which 50% of the free radical DPPH had been removed),[1],0.250 mol/mol
same,antioxidative index (AOI) with 0.05% of test substance,[2],5.05
